Measured values: patent US11779565B2, “Small organic molecules for use in the treatment of neuroinflammatory disorders” (THE MEDICAL RESEARCH, INFRASTRUCTURE AND HEALTH SERVICES …, priority 2017, dated 2023)

Key:
RR-EAE mice = assay: De novo expression of NeuN (BrdU+NeuN+ cells) in SGZ of RR-EAE mice; type: in vivo
Experimental: FIGS. 12A-12B—The effect of SM1, SM7, SM9 and SM6 on de novo expression of mature neurons marker NeuN in the SGZ. FIG. 12A: immunohistochemical images showing the labeling of BrdU^+NeuN^+ cells in the SGZ. Images were obtained using Olympus 8.1 microscope (magnification×10). FIG. 12B: Quantification of BrdU^+NeuN^+ in the SGZ. Analysis was performed using image J software on 3 sections from each mouse (3 mice from each group, total n=9). Values are given as mean±SEM and the results of Student's t-test are represented as *p<0.05.
RR-EAE induced mice were intraperitoneally injected with 250 μg/mouse (Low-L) or 500 μg/mouse (High-H) of the small molecules SM1, SM7, SM9, SM6, or the corresponding vehicle. The SMs were injected each day starting on day 9 post immunization for 30 days. For immunohistochemical analysis, 3 mice of each group were intraperitoneally injected daily with bromo-2′-deoxyuridine (BrdU) starting from day 9 post immunization for 8 following days.
In this experiment, the amount of BrdU^+NeuN^+ cells in the SGZ of mice was evaluated. FIGS. 12A-12B show immunohistochemical labeling of BrdU^+NeuN^+ cells in mice with EAE that were treated with SMs or vehicle, using Olympus 8.1 microscope (magnification×10).

ATDC5 cells = assay: Cell viability (CellTiter-Glo) in the ATDC5 HTS bioassay; type: cell-based; settings: library screening
Experimental: Poly-L-lysine (Sigma-Aldrich) was added to 384-well plates and was removed after 30 min of incubation at RT. An assay medium containing DMEM/F12, 2% FBS, 100 units/ml penicillin, […] streptomycin (Biological industries) was added to each well. […] ATDC5 cells (Sigma-Aldrich) were harvested, re-suspended in assay medium and added to a final concentration of 2000 cells/well. Finally, heparin (Sigma-Aldrich) was added to a final concentration of 2 μg/ml. The cells were incubated for 48 hours at 37° C. with 5% CO2 in a humidified chamber in the presence or absence of potential small molecule inhibitors of BPM-2. After incubation, ALP levels and cell viability were determined using a completely automated protocol. Cells were washed with PBS, lysed using a lysis buffer containing 0.2% Triton X-100 in PBS supplemented with a protease inhibitor cocktail (Sigma-Aldrich) and incubated for 25 min at RT. ALP level was then determined by addition of CDP-Star® chemiluminescent substrate (Sigma-Aldrich) and measurement of luminescence after incubation for 25 min at RT in the dark. Cell viability was finally determined by addition of CellTiter-Glo® reagent (Biological Industries) and luminescence measurement after 10 min of incubation.
An ATDC5 cell based assay for assessing structure-function relationship of BMP-2 and BMP receptor IA was originally described in Keller et al (Nature Structural & Molecular Biology 2004 11, 481-488). In order to screen a large volume of potential therapeutic agents the ATDC5 cell based bioassay for detecting BMP inhibition was adapted for use in high throughput screening. The bioassay is based on the stimulation of alkaline phosphatase (ALP) production in mouse ATDC5 cells by administration of BMP-2 and heparin, and measurement of ALP levels in the presence of the potential inhibitors. The assay was characterized by the following features: • (a) optimal conditions for HTS automated instruments were found so as to obtain a satisfying gap (i.e. positive Z-prime, above 0.5) between ALP production in the presence of BMP-2, to ALP production in the absence of BMP-2 (no stimulation). • (b) a sensitive method was designed for ALP determination for HTS—namely, the use of CDP-Star® chemiluminescent substrate and luminescence measurement. • (c) both ALP production and cells' viability were measured simultaneously. This was achieved by using CellTiter-Glo® Luminescent Cell Viability Assay for assessing the cells' viability after the luminescent signal by CDP-Star® has faded. […]
A library of small molecules (SM) was screened using the High Throughput Screening bioassay described above. […] The ALP levels and cell viability are shown in FIG. 2 as a percentage of the ALP or viability luminescence levels in the presence of BMP-2 without the SM. […]

[1] = high dose (H) 500 μg/mouse i.p. daily

| SMILES | BrdU+NeuN+ cells in the SGZ vs. vehicle (RR-EAE mice; [1]) | cytotoxicity in mouse ATDC5 cells (ATDC5 cells) | BrdU+NeuN+ cells in the SGZ vs. vehicle (RR-EAE mice; low dose (L) 250 μg/mouse i.p. daily) |
| --- | --- | --- | --- |
| COC(=O)c1sccc1N/N=C(\C#N)S(=O)(=O)c1cccs1 [SM1, Methyl 3-[(2E)-2-[cyano(thiophen-2-ylsulfonyl)methylidene]hydrazinyl]thiophene-2-carboxylate] | significant increased induction | without leading to cytotoxicity | – |
| O=C(Nc1cccc(C(F)(F)F)c1)c1ccc([N+](=O)[O-])o1 [SM6, N2-[3-(trifluoromethyl)phenyl)-5-nitro-2-furamide] | – | without leading to cytotoxicity | – |
| N#Cc1c(O)nsc1Nc1ccccc1C(F)(F)F [SM7, 3-hydroxy-5-[2-(trifluoromethyl)aniline]isothiazole-4-carbonitrile] | – | without leading to cytotoxicity | – |
| CS(=O)(=O)c1noc(-c2ccc(Cl)cc2)c1C#N [SM9, 5-(4-chlorophenyl)-3-methylsulfonyl-1,2-oxazole-4-carbonitrile] | trend for increased | without leading to cytotoxicity | significant increased induction |
